≈ marks a conversion by molar mass, not a printed value. Positions of bridges follow the written chain, without caps; N, C: chain ends. Non-standard residues stand in square brackets, D forms with d. Residues, ends and D or L forms follow the SMILES beside them. *: point of attachment. Benzoyl(4-Ph) = O=C(c1ccc(-c2ccccc2)cc1)*; X36 = O=C(c1cc(C(F)(F)F)cc(C(F)(F)F)c1)*; Heptanoyl(6-Me) = CC(C)CCCCC(=O)*; Decanoyl = CCCCCCCCCC(=O)*; X29 = Cc1cc(C)cc(C(=O)*)c1; X3 = O=C(c1ccc(Cl)cc1Cl)*; dNva = CCC[C@@H](N)C(=O)O; Octanoyl = CCCCCCCC(=O)*; Orn = NCCC[C@H](N)C(=O)O; Dab = NCC[C@H](N)C(=O)O; Abu = CC[C@H](N)C(=O)O; Dap = NC[C@H](N)C(=O)O
Experiments:
Acinetobacter baumannii = test system: Acinetobacter baumannii
Procedure: (§1) MICs of the lipopeptides (trifluoroacetic acid salt, TFA) were determined by broth microdilution in cation-adjusted Mueller-Hinton broth (CAMHB) (Oxoid Australia, Thebarton, SA, Australia) according to Clinical and Laboratory Standards Institute standards (Clinical and Laboratory Standards Institute. Performance standards for antimicrobial susceptibility testing; eighteenth informational supplement M100-S18. Wayne, Pa., 2008). Polymyxin B (sulphate) was employed as control. […]

Pseudomonas aeruginosa = test system: Pseudomonas aeruginosa
Procedure: as §1

Enterobacter cloacae = test system: Enterobacter cloacae
Procedure: as §1

Compound | Minimum inhibitory concentration, Ab A ATCC 17978 (Acinetobacter baumannii) | Minimum inhibitory concentration, Ab ATCC 19606 (Acinetobacter baumannii) | Minimum inhibitory concentration, Ab FADDI-AB034 (Acinetobacter baumannii) | Minimum inhibitory concentration, Pa ATCC 27853 (Pseudomonas aeruginosa) | Minimum inhibitory concentration, Pa FADDI-PA022 (Pseudomonas aeruginosa) | Minimum inhibitory concentration, Pa FADDI-PA025 (Pseudomonas aeruginosa) | Minimum inhibitory concentration, Ec FADDI-EC001 (Enterobacter cloacae) | Minimum inhibitory concentration, Ec FADDI-EC003 (Enterobacter cloacae) | Minimum inhibitory concentration, Ec FADDI-EC006 (Enterobacter cloacae) | Minimum inhibitory concentration (MIC), Ab ATCC 17978 (Acinetobacter baumannii; Acinetobacter baumannii ATCC 17978, broth microdilution in CAMHB, TFA salt) | Minimum inhibitory concentration (MIC), Ab ATCC 19606 (Acinetobacter baumannii; Acinetobacter baumannii ATCC 19606, broth microdilution in CAMHB, TFA salt) | Minimum inhibitory concentration (MIC), Ab FADDI-AB034 (Acinetobacter baumannii; Acinetobacter baumannii FADDI-AB034, broth microdilution in CAMHB, TFA salt) | Minimum inhibitory concentration (MIC), Pa ATCC 27853 (Pseudomonas aeruginosa; Pseudomonas aeruginosa ATCC 27853, broth microdilution in CAMHB, TFA salt) | Minimum inhibitory concentration (MIC), Pa FADDI-PA022 (Pseudomonas aeruginosa; Pseudomonas aeruginosa FADDI-PA022, broth microdilution in CAMHB, TFA salt) | Minimum inhibitory concentration (MIC), Pa FADDI-PA025 (Pseudomonas aeruginosa; Pseudomonas aeruginosa FADDI-PA025, broth microdilution in CAMHB, TFA salt) | Minimum inhibitory concentration (MIC), Ec FADDI-EC001 (Enterobacter cloacae; Enterobacter cloacae FADDI-EC001, broth microdilution in CAMHB, TFA salt) | Minimum inhibitory concentration (MIC), Ec FADDI-EC003 (Enterobacter cloacae; Enterobacter cloacae FADDI-EC003, broth microdilution in CAMHB, TFA salt) | Minimum inhibitory concentration (MIC), Ec FADDI-EC006 (Enterobacter cloacae; Enterobacter cloacae FADDI-EC006, broth microdilution in CAMHB, TFA salt)
CC(C)CCCCC(=O)N[C@@H](CCN)C(=O)N[C@H](C(=O)N[C@@H](CN)C(=O)N[C@H]1CCNC(=O)[C@H]([C@@H](C)O)NC(=O)[C@H](CCN)NC(=O)[C@H](CCN)NC(=O)[C@H](C)NC(=O)[C@@H](CC(C)C)NC(=O)[C@H](CCN)NC1=O)[C@@H](C)O [Compound 65] ({Heptanoyl(6-Me)}-[Dab]T[Dap][Dab][Dab][dL]A[Dab][Dab]T; lactam 4-C) | 0.25 µg/mL (≈ 0.227 µM) | 0.5 µg/mL (≈ 0.455 µM) | 1 µg/mL (≈ 0.91 µM) | 1 µg/mL (≈ 0.91 µM) | 2 µg/mL (≈ 1.82 µM) | 16 µg/mL (≈ 14.6 µM) | 0.5 µg/mL (≈ 0.455 µM) | <0.125 µg/mL | 0.25 µg/mL (≈ 0.227 µM) |  |  |  |  |  |  |  |  | 
CCCCCCCCCC(=O)N[C@@H](CCN)C(=O)N[C@H](C(=O)N[C@@H](CN)C(=O)N[C@H]1CCNC(=O)[C@H]([C@@H](C)O)NC(=O)[C@H](CCN)NC(=O)[C@H](CCN)NC(=O)[C@H](C(C)C)NC(=O)[C@@H](CC(C)C)NC(=O)[C@H](CCN)NC1=O)[C@@H](C)O [Compound 39] (Decanoyl-[Dab]T[Dap][Dab][Dab][dL]V[Dab][Dab]T; lactam 4-C) | 2 µg/mL (≈ 1.73 µM) | 0.5 µg/mL (≈ 0.433 µM) | 1 µg/mL (≈ 0.865 µM) | 1 µg/mL (≈ 0.865 µM) | 2 µg/mL (≈ 1.73 µM) | 2 µg/mL (≈ 1.73 µM) | 0.5 µg/mL (≈ 0.433 µM) | 0.5 µg/mL (≈ 0.433 µM) | 0.5 µg/mL (≈ 0.433 µM) |  |  |  |  |  |  |  |  | 
CC[C@@H]1NC(=O)[C@@H](CC(C)C)NC(=O)[C@H](CCN)NC(=O)[C@@H](NC(=O)[C@H](CN)NC(=O)[C@@H](NC(=O)[C@H](CCN)NC(=O)c2cc(C)cc(C)c2)[C@@H](C)O)CCNC(=O)[C@H]([C@@H](C)O)NC(=O)[C@H](CCN)NC(=O)[C@H](CCN)NC1=O [Compound 93] (X29-[Dab]T[Dap][Dab][Dab][dL][Abu][Dab][Dab]T; lactam 4-C) | 0.5 µg/mL (≈ 0.447 µM) | 1 µg/mL (≈ 0.893 µM) | 0.5 µg/mL (≈ 0.447 µM) | 2 µg/mL (≈ 1.79 µM) | 4 µg/mL (≈ 3.57 µM) | 2 µg/mL (≈ 1.79 µM) | 0.25 µg/mL (≈ 0.223 µM) | 1 µg/mL (≈ 0.893 µM) | 4 µg/mL (≈ 3.57 µM) |  |  |  |  |  |  |  |  | 
CC[C@@H]1NC(=O)[C@@H](CC(C)C)NC(=O)[C@H](CCN)NC(=O)[C@@H](NC(=O)[C@H](CN)NC(=O)[C@@H](NC(=O)[C@H](CCN)NC(=O)c2cc(C(F)(F)F)cc(C(F)(F)F)c2)[C@@H](C)O)CCNC(=O)[C@H]([C@@H](C)O)NC(=O)[C@H](CCN)NC(=O)[C@H](CCN)NC1=O [Compound 97] (X36-[Dab]T[Dap][Dab][Dab][dL][Abu][Dab][Dab]T; lactam 4-C) | <0.125 µg/mL | 0.5 µg/mL (≈ 0.407 µM) | 0.25 µg/mL (≈ 0.204 µM) | 0.5 µg/mL (≈ 0.407 µM) | 0.5 µg/mL (≈ 0.407 µM) | 1 µg/mL (≈ 0.815 µM) | 0.5 µg/mL (≈ 0.407 µM) | 0.25 µg/mL (≈ 0.204 µM) | 0.5 µg/mL (≈ 0.407 µM) |  |  |  |  |  |  |  |  | 
CCCCCCCC(=O)N[C@@H](CCCN)C(=O)N[C@H](C(=O)N[C@H](CO)C(=O)N[C@H]1CCNC(=O)[C@H]([C@@H](C)O)NC(=O)[C@H](CCN)NC(=O)[C@H](CCN)NC(=O)[C@H]([C@@H](C)O)NC(=O)[C@@H](CC(C)C)NC(=O)[C@H](CCN)NC1=O)[C@@H](C)O [Compound 14] (Octanoyl-[Orn]T[dS][Dab][Dab][dL]T[Dab][Dab]T; lactam 4-C) | 8 µg/mL (≈ 6.99 µM) | 16 µg/mL (≈ 14 µM) | 4 µg/mL (≈ 3.5 µM) | >32 µg/mL | 8 µg/mL (≈ 6.99 µM) | >32 µg/mL | 0.25 µg/mL (≈ 0.218 µM) | 0.5 µg/mL (≈ 0.437 µM) | 4 µg/mL (≈ 3.5 µM) |  |  |  |  |  |  |  |  | 
CC[C@@H]1NC(=O)[C@@H](CC(C)C)NC(=O)[C@H](CCN)NC(=O)[C@@H](NC(=O)[C@H](CCCN)NC(=O)[C@@H](NC(=O)[C@H](CCN)NC(=O)c2ccc(Cl)cc2Cl)[C@@H](C)O)CCNC(=O)[C@H]([C@@H](C)O)NC(=O)[C@H](CCN)NC(=O)[C@H](CCN)NC1=O [Compound 147] (X3-[Dab]T[Orn][Dab][Dab][dL][Abu][Dab][Dab]T; lactam 4-C) |  |  |  |  |  |  |  |  |  | 4 µg/mL | 4 µg/mL | 2 µg/mL | 1 µg/mL | 1 µg/mL | >32 µg/mL | <0.125 µg/mL | 1 µg/mL | 1 µg/mL
CCCCCCCC(=O)N[C@@H](CCN)C(=O)N[C@H](C(=O)N[C@@H](CN)C(=O)N[C@H]1CCNC(=O)[C@H]([C@@H](C)O)NC(=O)[C@H](CCN)NC(=O)[C@H](CN)NC(=O)[C@H]([C@@H](C)O)NC(=O)[C@@H](CC(C)C)NC(=O)[C@H](CCN)NC1=O)[C@@H](C)O [Compound 51] (Octanoyl-[Dab]T[Dap][Dab][Dab][dL]T[Dap][Dab]T; lactam 4-C) | 4 µg/mL (≈ 3.59 µM) | 4 µg/mL (≈ 3.59 µM) | 8 µg/mL (≈ 7.17 µM) | 1 µg/mL (≈ 0.897 µM) | 0.5 µg/mL (≈ 0.448 µM) | >32 µg/mL | 0.25 µg/mL (≈ 0.224 µM) | 0.25 µg/mL (≈ 0.224 µM) | 1 µg/mL (≈ 0.897 µM) |  |  |  |  |  |  |  |  | 
CCCCCCCC(=O)N[C@@H](CCN)C(=O)N[C@H](C(=O)N[C@@H](CN)C(=O)N[C@H]1CCNC(=O)[C@H]([C@@H](C)O)NC(=O)[C@H](CCN)NC(=O)[C@H](CCN)NC(=O)[C@H](CC)NC(=O)[C@@H](CCC)NC(=O)[C@H](CCN)NC1=O)[C@@H](C)O [Compound 69] (Octanoyl-[Dab]T[Dap][Dab][Dab][dNva][Abu][Dab][Dab]T; lactam 4-C) | 0.5 µg/mL (≈ 0.455 µM) | 0.5 µg/mL (≈ 0.455 µM) | 0.25 µg/mL (≈ 0.227 µM) | 0.5 µg/mL (≈ 0.455 µM) | 0.5 µg/mL (≈ 0.455 µM) | 8 µg/mL (≈ 7.28 µM) | 0.25 µg/mL (≈ 0.227 µM) | <0.125 µg/mL | <0.125 µg/mL |  |  |  |  |  |  |  |  | 
CC(C)C[C@H]1NC(=O)[C@H](CCN)NC(=O)[C@@H](NC(=O)[C@@H](CO)NC(=O)[C@@H](NC(=O)[C@H](CCN)NC(=O)c2ccc(-c3ccccc3)cc2)[C@@H](C)O)CCNC(=O)[C@H]([C@@H](C)O)NC(=O)[C@H](CCN)NC(=O)[C@H](CCN)NC(=O)[C@H]([C@@H](C)O)NC1=O [Compound 11] ({Benzoyl(4-Ph)}-[Dab]T[dS][Dab][Dab][dL]T[Dab][Dab]T; lactam 4-C) | 0.5 µg/mL (≈ 0.422 µM) | 2 µg/mL (≈ 1.69 µM) | 1 µg/mL (≈ 0.844 µM) | 4 µg/mL (≈ 3.38 µM) | 4 µg/mL (≈ 3.38 µM) | 32 µg/mL (≈ 27 µM) | 0.5 µg/mL (≈ 0.422 µM) | 0.5 µg/mL (≈ 0.422 µM) | 0.5 µg/mL (≈ 0.422 µM) |  |  |  |  |  |  |  |  | 
